Where “and” joins values, the source holds several entries; their conditions need not be identical. Identical values can stand only once. Entries after “also recorded” stand apart in the source; their conditions may differ. Like-named read-outs stand apart in the source and are kept apart here.
Legend:
MG63.3 OS cell line [1] = experiment: 2D growth / cytotoxicity by MTT, MG63.3; conditions: for doses exhibiting cytotoxicity on 2D growth: 72 h
Protocol: The number of viable cells present in 2D culture was determined by MTT as previously reported. Briefly, cells were plated in 96-well plates at 2,000 cells/well and incubated at 37° C. for 24 h. After 24 h, the media was replaced with fresh media containing drugs at the desired concentrations (10 pM-10 μM) and incubated at 37° C. for 72 h. After 72 h, MTT reagent (20 L/well of a 5 mg/mL stock solution in sterile water; Sigma, St. Louis, MO) was added to each well and the plate was incubated at 37° C. for 2 h. DMSO ([…]) was then added to each well to solubilize the formazan crystals.
The resulting absorbance was measured at 490 nm via plate reader (Molecular Devices, San Jose, CA). DMSO (0.1%) was used as vehicle control, while 20 μM rapamycin was used as a positive cell-kill control. The experimental conditions were conducted in triplicate and each experiment was repeated three times. Regression lines and IC50's were calculated using a four-parameter variable slope nonlinear fit in GraphPad Prism.

MG63.3 OS cell line [2] = experiment: in vitro 3D BME assay with MG63.3 OS cell line; type: cell-based, human; conditions: for 3D activity and selectivity for ME in a screen of 10 HDAC inhibitors: selectivity = ratio of 3D to 2D % inhibition at the same dose, Class I, Class II, pan-HDAC; for activity on 3D BME compared with 2D: MG63.3, 3D BME vs 2D MTT 72 h; for 3D growth inhibition and selectivity for ME at selected dose: givinostat 400 nM, quisinostat 10 nM, MG63.3 3D BME
Excerpt: 3D basement membrane extract (BME) assay was developed at the NCI Barkan (D. Barkan et al. 2008; Dalit Barkan and Green 2011; Hen and Barkan 2020). BME is purified from Engelbreth-Holm-Swarm (EHS) tumor, primarily made up of laminin, collagen IV, entactin, and heparin sulfate proteoglycans (Cultrex Reduced Growth Factor Basement Membrane Extract, PathClear n.d.), which allows it to more accurately reflect the 3D extracellular environment in the body.
Initially >150 selected therapeutic agents were tested on BME based on the likelihood for either a positive effect or a […] negative effect (as negative controls). […] These therapeutic agents were also tested in dose response (as broad as 1 pM-100 μM) for 2D cytotoxicity (MTT) and the IC50 was calculated. Where required, the hits from the initial screen were also further characterized at additional doses <100 nM in order to further determine the relative selectivity compared to the 2D IC50.
The influence of drug exposure on the metastatic phenotype was assessed in an in vitro assay of ME and escape from dormancy using a 3D BME assay as previously reported, which was adapted for use with OS cells.
Cultrex® PathClear, Reduced Growth Factor Basement Membrane Extract (BME—Bio-Techne, Minneapolis, MN) was added ([…]) to a 96-well plate and allowed to gel by incubating at 37° C. for ≥30 min. Cells were harvested, washed with DMEM (no glucose, no FBS, Gibco, Grand Island, NY) and centrifuged at 1500 g×5 mins. The media was aspirated and the remaining cell pellet flicked for about 10 s to ensure disaggregation.
Cells were diluted in assay media containing 2% BME, resuspended vigorously and 150 μL of the cell suspension was added on top of the gelled 3D BME layer. […] Cell numbers were determined in control vehicle (cells in media+0.1% DMSO), or treated wells and were measured on the indicated days by addition of 20 μL/well of MTS reagent (Cell Titer 96 Aqueous One, Promega, Madison, WI), followed by incubation at 37° C. for 2 h and absorbance measurements at 490 nm via plate reader (Molecular Devices, San Jose CA).
All conditions were conducted in quadruplicate and each experiment was carried out at least 3 separate times. All comparisons were made between treatment and vehicle control at concordant time points. Statistical analyses and non-linear regressions were derived using GraphPad Prism statistical software.

[3] = MG63.3 on 3D BME, vs vehicle control, replicates=4
[4] = Homo sapiens, MG-63.3, MG63.3 on 3D BME, vs vehicle control, replicates=4, read-out: lowest dose leading to appreciable inhibition of 3D growth
[5] = Homo sapiens, MG-63.3, read-out: lowest dose leading to appreciable inhibition of 3D growth
[6] = MG63.3 on 3D BME, vs vehicle control, replicates=4, read-out: lowest dose leading to appreciable inhibition of 3D growth

Row | SMILES | doses exhibiting cytotoxicity on 2D growth (MG63.3 OS cell line [1]; human) | minimal effective concentration (MG63.3 OS cell line [2]; [4]) | activity on 3D BME compared with 2D (MG63.3 OS cell line [2]) | also measured
1 | COc1ccc(-c2nc(N3CCOCC3)c3sc(CN(C)c4ncc(C(=O)NO)cn4)cc3n2)cn1 [fimepinostat] | ≥ 1 nM | – | – | 3D activity and selectivity for ME in a screen of 10 HDAC inhibitors (MG63.3 OS cell line [2]; MG63.3): 3D activity and selectivity for ME; lowest dose leading to complete inhibition of 3D growth (MG63.3 OS cell line [2]; [3]): 5 nM
2 | CO[C@@H](C(=O)N1Cc2n[nH]c(NC(=O)c3ccc(N4CCN(C)CC4)cc3)c2C1)c1ccccc1 [danusertib] | > 100 nM | 0.1 µM | much stronger activity on 3D BME at significantly lower doses | –
3 | O=C(NC[C@H](O)CO)c1ccncc1Nc1ccc(I)cc1F [pimasertib] | above 1 nM | – | – | lowest dose leading to complete inhibition of 3D growth (MG63.3 OS cell line [2]; [3]): 100 nM
4 | Cn1ncnc1[C@H]1c2n[nH]c(=O)c3cc(F)cc(c23)N[C@@H]1c1ccc(F)cc1 [talazoparib] | > 100 nM | 0.0125 µM | much stronger activity on 3D BME at significantly lower doses | –
5 | CO[C@H]1/C=C\C=C(/C)C(=O)NC2=CC(=O)C(NCCN(C)C)=C(C[C@@H](C)C[C@H](OC)[C@H](O)[C@@H](C)/C=C(\C)[C@@H]1OC(N)=O)C2=O [alvespimycin] | – | 0.0125 µM | much stronger activity on 3D BME at significantly lower doses | doses exhibiting cytotoxicity on 2D growth (MG63.3 OS cell line [1]; MG63.3, MTT, replicates=3): > 25 nM
6 | COc1cc(Nc2ncc3c(n2)-c2ccc(Cl)cc2C(c2c(F)cccc2OC)=NC3)ccc1C(=O)O [alisertib] | > 25 nM | 0.0125 µM | much stronger activity on 3D BME at significantly lower doses | –
7 | NS(=O)(=O)OC[C@@H]1C[C@@H](n2ccc3c(N[C@H]4CCc5ccccc54)ncnc32)C[C@@H]1O [pevonedistat] | > 10 nM | – | much stronger activity on 3D BME at significantly lower doses; also recorded: more active in 3D than in 2D | inhibition at 0.025 µM (MG63.3 OS cell line [1]; Homo sapiens, MG-63.3, read-out: inhibition in 2D): 20%; inhibition at 0.025 µM (MG63.3 OS cell line [2]; Homo sapiens, MG-63.3, pevonedistat 25 nM, MG63.3): 47%
8 | O=C(NOC[C@H](O)CO)c1ccc(F)c(F)c1Nc1ccc(I)cc1F [PD0325901] | ≥ 100 nM | – | much stronger activity on 3D BME at similar doses; also recorded: more active in 3D than in 2D | inhibition in 2D at this dose (MG63.3 OS cell line [1]; PD0325901 1-128 nM, MG63.3): no statistically significant inhibition; minimal effective concentration (MG63.3 OS cell line [2]; [5]): 0.001 µM; growth inhibition in the 3D BME assay (MG63.3 OS cell line [2]; PD0325901 1-128 nM, MG63.3): 50-75%
9 | CC(C)n1nc(-c2ccc3oc(N)nc3c2)c2c(N)ncnc21 [sapanisertib] | > 8 nM | 0.001 µM | – | –
10 | CO[C@@]12[C@H](COC(N)=O)C3=C(C(=O)C(C)=C(N)C3=O)N1C[C@@H]1N[C@@H]12 [mitomycin C] | – | – | much stronger activity on 3D BME at significantly lower doses; also recorded: more active in 3D than in 2D | IC50 (MG63.3 OS cell line [1]; read-out: 2D IC50, MG63.3, MTT 72 h): 1000 nM and ~1000 nM; IC50 (MG63.3 OS cell line [2]; MG63.3): 50 nM; minimal effective concentration (MG63.3 OS cell line [2]; [6]): 0.0125 µM
11 | CC1(C)CCC(c2ccc(Cl)cc2)=C(CN2CCN(c3ccc(C(=O)NS(=O)(=O)c4ccc(N[C@H](CCN5CCOCC5)CSc5ccccc5)c(S(=O)(=O)C(F)(F)F)c4)cc3)CC2)C1 [navitoclax] | ≥ 1000 nM | 0.5 µM | much stronger activity on 3D BME at similar doses; also recorded: more active in 3D than in 2D | inhibition in 2D (MG63.3 OS cell line [1]; navitoclax 500-2000 nM, MG63.3): 0-25%; growth inhibition in the 3D BME assay (MG63.3 OS cell line [2]; navitoclax 500-2000 nM, MG63.3): 50-60%
12 | Cc1[nH]c2ccccc2c1CCNCc1ccc(/C=C/C(=O)NO)cc1 [panobinostat] | ≥ 80 nM | 0.04 µM | – | –
13 | Cn1cc(CNCC2CCN(c3ncc(C(=O)NO)cn3)CC2)c2ccccc21 [quisinostat] | ≥ 80 nM | 0.01 µM | more active in 3D than in 2D | 3D activity and selectivity for ME in a screen of 10 HDAC inhibitors (MG63.3 OS cell line [2]; MG63.3): highest 3D activity and selectivity for ME; 3D growth inhibition and selectivity for ME at selected dose (MG63.3 OS cell line [2]): significant 3D growth inhibition and selectivity for ME
14 | CC(C)[C@]12O[C@H]1[C@@H]1O[C@]13[C@]1(O[C@H]1C[C@H]1C4=C(CC[C@@]13C)C(=O)OC4)[C@@H]2OCOP(=O)(O)O [minnelide] | – | – | – | doses exhibiting cytotoxicity on 2D growth (MG63.3 OS cell line [1]; MG63.3, MTT, replicates=3): ≥ 0.781 nM; lowest dose leading to complete inhibition of 3D growth (MG63.3 OS cell line [2]; [3]): 4 nM
15 | CC(C)[C@]12O[C@H]1[C@@H]1O[C@]13[C@]1(O[C@H]1C[C@H]1C4=C(CC[C@@]13C)C(=O)OC4)[C@@H]2O [triptolide] | – | – | – | cytotoxicity on 2D growth (MG63.3 OS cell line [1]): cytotoxicity at all doses tested; lowest dose leading to complete inhibition of 3D growth (MG63.3 OS cell line [2]; [3]): 1 nM
16 | O=C(Cc1cccc(OC(F)(F)F)c1)Nc1ccc(CCCCc2nnc(NC(=O)Cc3ccccn3)s2)nn1 [telaglenastat] | > 100 nM | 0.001 µM | much stronger activity on 3D BME at significantly lower doses; also recorded: more active in 3D than in 2D | effect in 2D at the same dose (MG63.3 OS cell line [1]; telaglenastat 100 nM, MG63.3): no statistically significant inhibition; also recorded: inactive; minimal effective concentration (MG63.3 OS cell line [2]; [6]): 0.001 µM; growth in cell number in 3D BME at highest 2D inactive dose (MG63.3 OS cell line [2]; telaglenastat 100 nM, MG63.3): 10%
17 | COc1c(C)cnc(Cn2cnc3c(Cl)nc(N)nc32)c1C [BIIB021] | > 10 nM | 0.008 µM | much stronger activity on 3D BME at significantly lower doses | –
18 | CCN(CC)Cc1ccc2cc(COC(=O)Nc3ccc(C(=O)NO)cc3)ccc2c1 [givinostat] | ≥ 600 nM | 0.3 µM | more active in 3D than in 2D | 3D activity and selectivity for ME in a screen of 10 HDAC inhibitors (MG63.3 OS cell line [2]; MG63.3): highest 3D activity and selectivity for ME; 3D growth inhibition and selectivity for ME at selected dose (MG63.3 OS cell line [2]): significant 3D growth inhibition and selectivity for ME
19 | C=CCNc1c(O)cc2c(O)c1C[C@@H](C)C[C@H](OC)[C@H](O)[C@@H](C)/C=C(\C)[C@H](OC(N)=O)[C@@H](OC)/C=C\C=C(/C)C(=O)N2 [retaspimycin] | – | 0.2 µM | – | doses exhibiting cytotoxicity on 2D growth (MG63.3 OS cell line [1]; MG63.3, MTT, replicates=3): > 400 nM
20 | C=CCNC1=C2C[C@@H](C)C[C@H](OC)[C@H](O)[C@@H](C)/C=C(\C)[C@H](OC(N)=O)[C@@H](OC)/C=C\C=C(/C)C(=O)NC(=CC1=O)C2=O [tanespimycin] | – | – | – | doses exhibiting cytotoxicity on 2D growth (MG63.3 OS cell line [1]; MG63.3, MTT, replicates=3): > 25 nM; minimal effective concentration (MG63.3 OS cell line [2]; [5]): 0.025 µM
21 | O=C(/C=C/c1cccc(S(=O)(=O)Nc2ccccc2)c1)NO [belinostat] | ≥ 80 nM | 0.2 µM | – | 3D activity and selectivity for ME in a screen of 10 HDAC inhibitors (MG63.3 OS cell line [2]; MG63.3): 3D activity and selectivity for ME
22 | O=C(/C=C/c1cccnc1)NCCCCC1CCN(C(=O)c2ccccc2)CC1 [(E)-daporinad] | > 0.1 nM | – | much stronger activity on 3D BME at significantly lower doses | minimal effective concentration (MG63.3 OS cell line [2]; [6]): 0.0001 µM
23 | O=C(CC1NCCCC1O)Cn1cnc2cc(Br)c(Cl)cc2c1=O (centres unmarked) [halofuginone] | ≥ 12.5 nM | – | – | lowest dose leading to >25% inhibition of 3D growth (MG63.3 OS cell line [2]; [3]): 3 nM

From US20250161287A1, “METHODS, COMPOSITIONS, AND COMBINATIONS FOR PREVENTING OR TREATING CANCER RECURRENCE” (VUJA DE SCIENCES, INC., priority 2022, published 2025)
